Key:
[1] = target: human cytochrome P450 3A4 (Homo sapiens, UniProt P08684)
Experimental: 3A4 protein produced essentially as described in “Protein purification (3)” above was used to obtain co-crystals with metyrapone, apart from replacing the CM-Sepharose column with a CM-fast flow column. Co-crystals of metyrapone were generated using crystallisation conditions of 0.1M Hepes pH 7.5, 0.25M sodium chloride, 5% MPD, 50 mM Calcium chloride, 10% (w/v) PEG 4000, and soaking the crystals in 0.5 mM metyrapone for 4 hours. […] The Fe—N bond distance was loosely restrained to […] during the refinement.
3A4 protein produced essentially as described in “Protein purification (3)” above was used to obtain co-crystals with progesterone, apart from replacing the CM-Sepharose column with a CM-fast flow column. Co-crystals of progesterone were obtained by co-crystallisation using 0.5 mM progesterone in 2.5% ethanol and crystallisation conditions of 0.1M HEPES pH 7.5, 0.25M potassium chloride, 12% (w/v) PEG 4000, 5% (w/v) MPD, 25 mM calcium chloride.
Molecular replacement was performed using the program AMORE and using the CYP3A4 crystal structure described in Table 1 as the search model. […] This molecular replacement model was then used as a starting model for subsequent refinement of other datasets from crystal form 2.
Apo (compound-free) crystals of 3A4 were obtained by setting up a 1:1 ratio of protein (at 36.5 mg/ml in buffer, 10 mM KPi, pH7.2, 20% glycerol, 1 mM EDTA, 2 mM DTT, 0.5M KCl) against 0.1 M Hepes-NaOH pH 7.5, 1.44 M sodium citrate.
Apo (compound-free) crystals of 3A4 were generated by setting up a 1:1 ratio of protein (at 36.5 mg/ml in buffer, 10 mM KPi, pH7.2, 20% glycerol, 1 mM EDTA, 2 mM DTT, 0.5M KCl) against 0.1M Hepes-NaOH pH 7.5, 1.424M Sodium citrate. The resulting crystals were soaked for 18 hours in a mother liquor containing 5 mM fluconazole, and then frozen using 0.1M Hepes-NaOH pH7.5, 1.4M sodium citrate, 15% glycerol.

[2] = target: T1, CYP3A4 (Homo sapiens, UniProt P08684); experiment: UV/visible spectroscopy of inhibitor binding in solution; conditions: UV/visible spectroscopic data (not shown)
T1 construct: made in house; host or cells: E. coli XL1 Blue
T1 sequence (P08684 with tags, fused parts or gaps): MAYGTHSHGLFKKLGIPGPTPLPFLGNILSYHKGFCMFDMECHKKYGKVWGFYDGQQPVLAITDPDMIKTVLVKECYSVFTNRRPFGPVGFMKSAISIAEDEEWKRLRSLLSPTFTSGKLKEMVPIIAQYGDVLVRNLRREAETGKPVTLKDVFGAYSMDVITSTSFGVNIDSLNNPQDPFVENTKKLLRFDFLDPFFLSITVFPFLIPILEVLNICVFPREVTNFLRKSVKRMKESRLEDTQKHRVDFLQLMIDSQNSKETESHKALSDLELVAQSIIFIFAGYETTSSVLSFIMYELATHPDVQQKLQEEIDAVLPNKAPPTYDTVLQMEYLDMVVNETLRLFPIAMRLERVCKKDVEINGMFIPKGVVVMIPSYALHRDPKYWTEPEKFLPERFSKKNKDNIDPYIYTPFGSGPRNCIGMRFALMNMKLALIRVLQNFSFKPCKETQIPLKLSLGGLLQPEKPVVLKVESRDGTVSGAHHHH

human cytochrome P450 3A4, sequence (P08684 with tags, fused parts or gaps): as above

## CC(=O)[C@H]1CC[C@H]2[C@@H]3CCC4=CC(=O)CC[C@]4(C)[C@H]3CC[C@]12C [progesterone]
[1]
  binding position of the compound in the 3A4 crystal structure: bound at a peripheral site very close to the Phe-cluster

## CC(C)(C(=O)c1cccnc1)c1cccnc1 [metyrapone]
[1]
  binding position of the compound in the 3A4 crystal structure: bound directly to the haem iron via a pyridine nitrogen
  volume occupied by the molecule in the active site: 50 Å^3
[2]
  binding mode in solution: liganded to the haem

## OC(Cn1cncn1)(Cn1cncn1)c1ccc(F)cc1F [fluconazole]
[1]
  distance of the compound (nearest atom) from the haem iron: approximately 14 Å
  separation of the two bound copies of the compound: approximately 7 Å

Reference: patent US20070179716A1, “Crystal structure of cytochrome P450 3A4 and uses thereof” (ASTEX THERAPEUTICS LIMITED, priority 2001, published 2007)
